From patent US20160310519A1, “MODIFIED G-QUADRUPLEX NANOPARTICLES” (NANYANG TECHNOLOGICAL UNIVERSITY, priority 2013, published 2016)

Legend:
[1] = CD melting experiments of multiple N2-modified G-quadruplexes in low salt; format: physicochemical; conditions: low salt (1 mM KPi+1 mM KCl), CD at 290 nm
Description: CD melting experiments were performed for the unmodified sequence and for sequences containing multiple N2-modifications. Samples contained 4-5 μM DNA by strand concentration in 1 mM KCl and 1 mM KPi. Samples were heated to 95° C. (98° C. for N2-Ball-with-Hair sample) and cooled to 15° C. at a rate of 0.2° C./min. Samples were then heated in a similar manner. Data was recorded every 0.5° C. at 290 nm and corrected by subtraction at 320 nm. Normalized melting curves are used to determine the melting temperature (Tm) of modified sequences, which is taken as an average of the heating and cooling curves.
The designed sequences were tested in a “low salt” solution of 1 mM KPi+1 mM KCl. Of the sequences tested with multiple modifications, SEQ ID Nos. 38, 39, 41 and 42 were determined to maintain the (3+1) conformation by analysis of ^1H NMR and CD spectra, which were highly similar to SEQ ID NO:1 (FIG. 4).
Additionally, these changes in stability were roughly equivalent to the sum of stability changes observed for the individual single-position substitutions.

[2] = Temperature dependent CD spectra under physiological salt conditions; format: physicochemical
Description: Spectra were recorded on a JASCO-815 spectropolarimeter (Tokyo, Japan). Samples contained a DNA strand concentration of 4-5 μM. […] Spectra were normalized through subtracting by the CD absorbance at 320 nm and dividing by concentration of the sample determined by concurrent UV absorption measurements. Samples were annealed prior to recording of CD spectra by heating to 100° C. and allowed to cool slowly at room temperature.
The stability of the “Ball with Hair” structure formed by SEQ ID NO:42 under “physiological salt” conditions (10 mM Kpi+130 mM KCL) was similar to those experienced in a cellular environment. NMR spectra of SEQ ID NO:42 under physiological salt conditions matched the spectra recorded in low salt conditions.

Row | Substance | Δ Tm [1] | melting temperature ([2]; physiological K+ conditions (10 mM KPi+130 mM KCl)) [°C] | CD signal intensity observed at 95° C. ([2]; physiological salt (10 mM KPi+130 mM KCl), 95° C.) | melting temperature [1] [°C] | Δ Tm ([1]; listed as ball with hair) [°C]
1 | SEQ ID NO:38: contains two ^HexG substitutions into separate grooves in positions that were highly stabilizing in the single-substitutions studies (TTNGGTTANGGTTAGGGTTAGGGA; two N2-hexyl guanine modifications, chemistry not fully specified) | +6.9 °C | – | – | – | –
2 | SEQ ID NO:39: contains two ^MetG substitutions of guanines that neighbors within the wide groove (TTGGGTTAGNNTTAGGGTTAGGGA; two N2-methyl guanine modifications, chemistry not fully specified) | +18.2 °C | – | – | – | –
3 | SEQ ID NO:41: designed to contain a modification in each groove of the G-quadruplex nanoparticle (TTNGGTTANGNTTANGGTTAGGGA; DNA, backbone and the base at N not given here; N2-modified guanines at marked positions) | +26.6 °C | – | – | – | –
4 | SEQ ID NO:42: containing eight ^HexG modifications towards the design of a "Ball with Hair" type of nanoparticle (TTNNGTTANGNTTANGNTTAGNNA; eight N2-hexyl guanine modifications, chemistry not fully specified) | +46.2 °C | > 95 | more than 80% | 91.7 | 46
5 | SEQ ID NO:43: contains a variety of 8 N2-modifications aimed to maximize the thermal stability (TTNGGTTANGNTTANGNTTANGNA; DNA, backbone and the base at N not given here; further chemistry not fully specified) | +35.6 °C | – | – | – | –
